Results from PubChem BioAssay AID256 (DTP/NCI, 2004).
Where “and” joins values, the source holds several entries; their conditions need not be identical. Equal entries are not always repeated. Inconclusive results and toxic doses are left out. Rule for the calls: active = survival T/C of 150% or more; inactive = T/C below 125% in these data.

Tested on: CD2F1 mice, L1210 leukemia ip, survival T/C
Assay: NCI In Vivo Anticancer Drug Screen. Data for tumor model L1210 Leukemia (intraperitoneal) in CD2F1 (CDF1) mice
Conditions: higher = longer survival
Method in brief: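 Implant tumor; dose compound or vehicle; measure endpoint in both groups; report treated divided by control.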

[1] = endpoint: mean survival time, dose: 100.0 mg/kg/injection, schedule: Q04DX003 (ip), vehicle: saline with Tween-80
[2] = endpoint: mean survival time, dose: 200.0 mg/kg/injection, schedule: Q04DX003 (ip), vehicle: saline with Tween-80
[3] = endpoint: mean survival time, dose: 400.0 mg/kg/injection, schedule: Q04DX003 (ip), vehicle: saline with Tween-80
[4] = endpoint: mean survival time, dose: 50.0 mg/kg/injection, schedule: Q01DX009 (ip), vehicle: saline with Tween-80
[5] = endpoint: mean survival time, dose: 100.0 mg/kg/injection, schedule: Q01DX009 (ip), vehicle: saline with Tween-80
[6] = endpoint: mean survival time, dose: 100.0 mg/kg/injection, schedule: Q01DX001 (ip), vehicle: saline with Tween-80
[7] = endpoint: mean survival time, dose: 200.0 mg/kg/injection, schedule: Q01DX001 (ip), vehicle: saline with Tween-80
[8] = endpoint: mean survival time, dose: 400.0 mg/kg/injection, schedule: Q01DX001 (ip), vehicle: saline with Tween-80
[9] = endpoint: mean survival time, dose: 200.0 mg/kg/injection, schedule: Q01DX009 (ip), vehicle: saline with Tween-80
[10] = endpoint: mean survival time, dose: 400.0 mg/kg/injection, schedule: Q01DX009 (ip), vehicle: saline with Tween-80
[11] = endpoint: mean survival time, dose: 5.0 mg/kg/injection, schedule: Q04DX003 (ip), vehicle: saline
[12] = endpoint: mean survival time, dose: 10.0 mg/kg/injection, schedule: Q04DX003 (ip), vehicle: saline
[13] = endpoint: mean survival time, dose: 20.0 mg/kg/injection, schedule: Q04DX003 (ip), vehicle: saline

Measured: T/C

C/C(=N\NC(=S)N1CC2CCC(CC2)C1)c1cccc(C)n1
inactive: endpoint: median survival time, dose: 3.12 mg/kg/injection, schedule: Q01DX005 (ip), vehicle: saline with Tween-80 103 % of control | endpoint: median survival time, dose: 6.25 mg/kg/injection, schedule: Q01DX005 (ip), vehicle: saline with Tween-80 108 % of control | endpoint: median survival time, dose: 12.5 mg/kg/injection, schedule: Q01DX005 (ip), vehicle: saline with Tween-80 119 % of control | endpoint: median survival time, dose: 25.0 mg/kg/injection, schedule: Q01DX005 (ip), vehicle: saline with Tween-80 102 % of control and 108 % of control

C=CCN(CC=C)/N=N/c1nc[nH]c1C(N)=O
inactive: [1] 98 % of control | [2] 105 % of control | [3] 100 % of control

CCOC(=O)C(N)Cc1ccc(OC)c(N(CCCl)CCCl)c1 (stereo unspecified)
inactive: endpoint: mean survival time, dose: 1.1 mg/kg/injection, schedule: Q01DX001 (ip), vehicle: carboxymethylcellulose (CMC) 122 % of control | endpoint: mean survival time, dose: 1.7 mg/kg/injection, schedule: Q01DX001 (ip), vehicle: carboxymethylcellulose (CMC) 120 % of control

NC(=O)c1ncn2c(=O)n(CCCl)nnc12
inactive: endpoint: median survival time, dose: 50.0 mg/kg/injection, schedule: Q01DX009 (ip), vehicle: suspension in saline 100 % of control
active: endpoint: median survival time, dose: 3.0 mg/kg/injection, schedule: Q01DX009 (ip), vehicle: saline 174 % of control | endpoint: median survival time, dose: 3.12 mg/kg/injection, schedule: Q01DX009 (ip), vehicle: saline 212 % of control | endpoint: median survival time, dose: 6.0 mg/kg/injection, schedule: Q01DX009 (ip), vehicle: saline 223 % of control | endpoint: median survival time, dose: 6.25 mg/kg/injection, schedule: Q01DX009 (ip), vehicle: saline 184 % of control and 214 % of control and 365 % of control | endpoint: median survival time, dose: 6.25 mg/kg/injection, schedule: Q01DX009 (ip), vehicle: suspension in saline 182 % of control | endpoint: median survival time, dose: 12.0 mg/kg/injection, schedule: Q01DX009 (ip), vehicle: saline 352 % of control | endpoint: median survival time, dose: 12.5 mg/kg/injection, schedule: Q01DX009 (ip), vehicle: saline 222 % of control and 365 % of control (2×) | endpoint: median survival time, dose: 12.5 mg/kg/injection, schedule: Q01DX009 (ip), vehicle: suspension in saline 322 % of control | endpoint: median survival time, dose: 25.0 mg/kg/injection, schedule: Q01DX009 (ip), vehicle: suspension in saline 322 % of control

N=Cc1ccccc1
inactive: endpoint: mean survival time, dose: 100.0 mg/kg/injection, schedule: Q01DX001 (ip), vehicle: Klucel (hydroxypropylcellulose) (HPC) 99 % of control | endpoint: mean survival time, dose: 200.0 mg/kg/injection, schedule: Q01DX001 (ip), vehicle: Klucel (hydroxypropylcellulose) (HPC) 96 % of control | endpoint: mean survival time, dose: 400.0 mg/kg/injection, schedule: Q01DX001 (ip), vehicle: Klucel (hydroxypropylcellulose) (HPC) 105 % of control

Cc1ccc(C(=O)NCCCOc2ccc(N3C(N)=NC(N)=NC3(C)C)cc2Cl)cc1S(=O)(=O)F
inactive: endpoint: mean survival time, dose: 12.5 mg/kg/injection, schedule: Q01DX009 (ip), vehicle: saline with Tween-80 106 % of control | endpoint: mean survival time, dose: 25.0 mg/kg/injection, schedule: Q01DX009 (ip), vehicle: saline with Tween-80 103 % of control | [4] 103 % of control | [5] 106 % of control

Cc1cccc(N=Cc2ccc3c(c2)OCO3)c1
inactive: endpoint: mean survival time, dose: 100.0 mg/kg/injection, schedule: Q04DX003 (ip), vehicle: Klucel (hydroxypropylcellulose) (HPC) 100 % of control | endpoint: mean survival time, dose: 200.0 mg/kg/injection, schedule: Q04DX003 (ip), vehicle: Klucel (hydroxypropylcellulose) (HPC) 111 % of control

COc1ccc(OC)c(/C=C/c2ccc3ccccc3[n+]2C)c1
inactive: endpoint: mean survival time, dose: 5.0 mg/kg/injection, schedule: Q01DX009 (ip), vehicle: saline with Tween-80 98 % of control | endpoint: mean survival time, dose: 10.0 mg/kg/injection, schedule: Q01DX009 (ip), vehicle: saline with Tween-80 88 % of control

COc1ccc2c(c1)CCN=C2CCN1C(=O)CCC1=O
inactive: endpoint: mean survival time, dose: 100.0 mg/kg/injection, schedule: Q04DX003 (ip), vehicle: saline 101 % of control | endpoint: mean survival time, dose: 200.0 mg/kg/injection, schedule: Q04DX003 (ip), vehicle: saline 98 % of control

CC(=O)NC1C(OS(=O)(=O)c2ccc(C)cc2)C(NC(C)=O)C(OC(C)=O)C(OC(C)=O)C1OC(C)=O (stereo unspecified)
inactive: [6] 97 % of control | [7] 103 % of control | [8] 101 % of control

Cn1c(CC(O)(C(F)(F)F)C(F)(F)F)c(C(O)(C(F)(F)F)C(F)(F)F)c2ccccc21
inactive: endpoint: mean survival time, dose: 5.0 mg/kg/injection, schedule: Q04DX003 (ip), vehicle: saline with Tween-80 101 % of control | endpoint: mean survival time, dose: 10.0 mg/kg/injection, schedule: Q04DX003 (ip), vehicle: saline with Tween-80 90 % of control | endpoint: mean survival time, dose: 20.0 mg/kg/injection, schedule: Q04DX003 (ip), vehicle: saline with Tween-80 90 % of control

c1ccc(CCCCc2ccc3ccccc3n2)cc1
inactive: [5] 93 % of control | [1] 106 % of control | [9] 102 % of control | [2] 100 % of control | [10] 98 % of control | [3] 100 % of control

C#CCN(Cc1ccc2nc(N)[nH]c(=O)c2c1)c1ccc(C(=O)NC(CCC(=O)O)C(=O)O)cc1 (stereo unspecified)
active: endpoint: median survival time, dose: 120.0 mg/kg/injection, schedule: Q01DX009 (ip), vehicle: sodium bicarbonate 156 % of control and 185 % of control | endpoint: median survival time, dose: 144.0 mg/kg/injection, schedule: Q01DX005 (ip), vehicle: water 162 % of control | endpoint: median survival time, dose: 400.0 mg/kg/injection, schedule: Q01DX005 (ip), vehicle: water 161 % of control
inactive: endpoint: median survival time, dose: 7.5 mg/kg/injection, schedule: Q01DX009 (ip), vehicle: sodium bicarbonate 109 % of control | endpoint: median survival time, dose: 15.0 mg/kg/injection, schedule: Q01DX009 (ip), vehicle: sodium bicarbonate 105 % of control and 109 % of control | endpoint: median survival time, dose: 25.0 mg/kg/injection, schedule: Q01DX005 (ip), vehicle: water 108 % of control | endpoint: median survival time, dose: 30.0 mg/kg/injection, schedule: Q01DX009 (ip), vehicle: sodium bicarbonate 117 % of control and 109 % of control | endpoint: median survival time, dose: 50.0 mg/kg/injection, schedule: Q01DX005 (ip), vehicle: water 109 % of control | endpoint: median survival time, dose: 86.4 mg/kg/injection, schedule: Q01DX005 (ip), vehicle: water 121 % of control

CC(C)(C)ONC(=O)c1ccccc1Sc1ccccc1
inactive: [5] 101 % of control | [9] 98 % of control | [10] 97 % of control

Cc1cc([N+](=O)[O-])ccc1S(=O)(=O)F
inactive: endpoint: mean survival time, dose: 25.0 mg/kg/injection, schedule: Q04DX003 (ip), vehicle: saline with Tween-80 95 % of control | endpoint: mean survival time, dose: 50.0 mg/kg/injection, schedule: Q04DX003 (ip), vehicle: saline with Tween-80 98 % of control | [1] 98 % of control

O=C(c1ccccc1)C(Cl)Cl
inactive: endpoint: mean survival time, dose: 50.0 mg/kg/injection, schedule: Q01DX009 (ip), vehicle: saline 95 % of control | [5] 108 % of control | endpoint: mean survival time, dose: 100.0 mg/kg/injection, schedule: Q01DX009 (ip), vehicle: saline 95 % of control | endpoint: mean survival time, dose: 200.0 mg/kg/injection, schedule: Q01DX009 (ip), vehicle: saline 106 % of control | [10] 86 % of control

N/C(=N\O)c1ccccc1
inactive: [4] 103 % of control | [5] 98 % of control | [9] 90 % of control

NN1CCCCC1
inactive: endpoint: mean survival time, dose: 100.0 mg/kg/injection, schedule: Q04DX002 (ip), vehicle: saline 103 % of control | endpoint: mean survival time, dose: 200.0 mg/kg/injection, schedule: Q04DX002 (ip), vehicle: saline 95 % of control

Cn1cc(C(O)CN2CCCCC2)c2ccccc21 (stereo unspecified)
inactive: [1] 93 % of control

O=C(O)/C=C\C(=O)Nc1ccccn1
inactive: endpoint: mean survival time, dose: 5.0 mg/kg/injection, schedule: Q01DX009 (ip), vehicle: saline 94 % of control | [11] 105 % of control and 106 % of control | endpoint: mean survival time, dose: 10.0 mg/kg/injection, schedule: Q01DX009 (ip), vehicle: saline 92 % of control | [12] 97 % of control and 105 % of control | [13] 97 % of control and 98 % of control | endpoint: mean survival time, dose: 30.0 mg/kg/injection, schedule: Q01DX009 (ip), vehicle: saline 100 % of control | endpoint: mean survival time, dose: 60.0 mg/kg/injection, schedule: Q01DX009 (ip), vehicle: saline 105 % of control

Cc1noc2c1ncc[n+]2[O-]
inactive: [11] 101 % of control | [12] 101 % of control | [13] 100 % of control

C1=Nc2c(ccc3ccccc23)CS1
inactive: endpoint: mean survival time, dose: 25.0 mg/kg/injection, schedule: Q04DX002 (ip), vehicle: other 91 % of control | endpoint: mean survival time, dose: 50.0 mg/kg/injection, schedule: Q04DX002 (ip), vehicle: other 95 % of control | endpoint: mean survival time, dose: 100.0 mg/kg/injection, schedule: Q04DX002 (ip), vehicle: other 100 % of control

CC(=O)OC(C)CC(C)(C)OC(C)=O (stereo unspecified)
inactive: [6] 95 % of control | [7] 92 % of control | [8] 103 % of control
